In paper PMC7564282, “Juniperonic Acid Biosynthesis is Essential in Caenorhabditis elegans Lacking Δ6 Desaturase (fat-3) and Generates New ω-3 Endocannabinoids” (Cells, 2020):
Where two headings read alike, the source gives them in different places.

Legend:
NPR-32 = target: T1, NPR-32 (Caenorhabditis elegans, UniProt O62403); assay: NPR-32 competitive binding assay with [3H]CP55,940 on N2 (WT) membrane preparations; set-up: species or system C. elegans
T1 sequence (O62403 1-440): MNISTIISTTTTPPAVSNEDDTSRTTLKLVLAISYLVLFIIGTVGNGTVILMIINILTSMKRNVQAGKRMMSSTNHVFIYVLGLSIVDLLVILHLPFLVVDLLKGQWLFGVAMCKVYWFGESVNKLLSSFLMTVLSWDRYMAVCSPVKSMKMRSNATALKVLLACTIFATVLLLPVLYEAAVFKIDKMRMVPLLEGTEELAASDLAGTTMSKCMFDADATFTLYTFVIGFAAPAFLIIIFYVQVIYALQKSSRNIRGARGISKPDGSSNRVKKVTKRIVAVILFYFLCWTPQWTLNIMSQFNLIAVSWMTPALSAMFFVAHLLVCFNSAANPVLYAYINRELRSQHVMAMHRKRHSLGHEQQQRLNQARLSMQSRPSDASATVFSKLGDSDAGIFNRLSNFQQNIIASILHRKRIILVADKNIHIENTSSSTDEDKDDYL
Protocol: (§1) Worm homogenization and membrane preparation: the animals were collected from NGM plates as described before. The animals were freshly broken/homogenized by tip sonication before the beginning of every assays in S-basal and then a protein estimation was carried out for these samples, by a standard BCA kit (Sigma-Aldrich, St. Louis, MO, USA). For membrane preparations the worm pellet was resuspended in homogenization buffer (50 mM Tris HCl pH = 7.4, 3 mM MgCl2, 1 mM EGTA). Next, the homogenate was transferred to an ultracentrifuge tube and spun at 100,000× g for 60 min at 4 °C. The supernatant was carefully removed and the pellet was gently washed. Then, the pellet was resuspended with the help of a polytron in 50 mM Tris HCl pH = 7.4 and passed through a clean syringe. Finally, the sample was sonicated in a water bath for 5 min. A protein estimation for the membranes was carried out and the aliquots were frozen and stored at −80 °C.
CP55,940 for 75 min at 30 °C. After the incubation time, membrane suspensions were rapidly filtered through a 0.1% polyethyleneimine presoaked 96-well microplate bonded with GF/B glass fiber filters (UniFilter-96 GF/B, PerkinElmer Life Sciences) under vacuum and washed 12 times with 120 µL of washing buffer (50 mM Tris-HCl, 2.5 mM EDTA, 5 mM MgCl2, 0.5% BSA, pH 7.5). […] The results were analyzed with GraphPad Prism 5® and expressed as % of [^3H]CP55,940 binding. IC50 values of each compound were estimated from fitted nonlinear curves and were used to calculate the Ki values by applying the Cheng-Prusoff equation.

MAGL = assay: Competitive [3H]2-OG hydrolysis assay in pig brain homogenate; format: biochemical
[1] = tested on: 2-OG hydrolysis in whole worm homogenates; assay: Competitive [3H]2-OG hydrolysis assay in whole worm homogenate; format: biochemical, C. elegans
Protocol: as §1
(§2) AEA and [^3H] 2-OG, respectively. The reaction was performed using worm homogenate (200 or 100 µg per sample) or pig brain homogenate (200 µg per sample) in 194 μL of assay buffer (10 mM Tris-HCl, 1 mM EDTA, 0.1 % BSA, pH 8.0). […] Signal was detected with TRICARB 2100TR scintillation counter and results were analyzed with GraphPad Prism 5® and expressed as [^3H] […]

fat-3(wa22) mutant [2] = assay: Brood size assay after dietary PUFA supplementation; format: in vivo, C. elegans; settings: for hatching and brood size defects: fat-3(wa22), 200 μM in E. coli OP50 diet, p < 0.0001
Protocol: (§3) Ten mM stock solutions of AA, ω-3 AA and JuA were prepared in DMSO and kept at −20 °C. These stocks were diluted in E. coli OP50 to a final concentration of 200 μM, and 100 μL of the volume was seeded onto each plate, with appropriate DMSO controls, allowing drying for 1 h in the dark. The animals that were treated with the PUFAs from hatching were allowed to grow on these plates until they reached L4 larval stage.
N2 (WT) and fat-3(wa22) were transferred onto NGM plates supplemented with PUFAs as described above. Once they reached L4 larval stage, one worm per plate was transferred to a plate freshly seeded with PUFAs and allowed to grow at 23 °C. These animals were transferred to new plates every 24 h until they ceased to lay eggs. The number of hatched progeny was checked and counts were performed after the population reached L3/L4 stage. This assay was carried out in three independent trials. Results were analyzed with GraphPad Prism 5®, San Diego, CA, USA. The data were pooled and analyzed using Student’s t test. p < 0.05 was accepted as statistically significant.
The RNA interference (RNAi) by feeding assay was performed on NGM agar plates supplemented with additional antibiotics ([…], […]) and 0.8 mM isopropyl-β-D-thiogalactopyranosid (IPTG). The Ahringer RNAi collection was used, E. coli HT115 bacteria containing RNAi vectors expressing double-stranded RNA of the genes fat-4, elo-1, and elo-2 were pre-cultured, induced with IPTG, and used as nematode food as described previously. Assays were carried out on plates seeded with RNAi bacteria induced overnight; the PUFAs were dissolved in sterile distilled water, and then overlaid on the plates just before the assays.

N2 (WT) animals = assay: Lifespan assay, N2 (WT); format: in vivo, C. elegans; settings: supplementation, 23 °C, 50 μg/mL FUDR
Protocol: as §3
All lifespan assays were carried out at 23 °C. Synchronized populations were obtained by allowing 10–15 hermaphrodites lay eggs overnight, and the next day the parents were removed. The eggs were allowed to hatch and 30 L4/young adult animals per plate (NGM plate containing 50 μg/mL FUDR to prevent the growth of progeny) were used for each assay. All the assays were carried out at least in triplicates and a minimum of two independent trials were performed for all conditions. The dead animals were counted starting the next day and exploding, protruding, bagging or contaminated animals were censored if applicable. We defined the day when we transferred the L4/young adult animals as day 0 of adult age. All statistical analyses were carried out using results that were analyzed with GraphPad Prism 5®. Kaplan–Meier lifespan analysis was carried out, and p values were calculated using the log-rank test. p < 0.05 was accepted as statistically significant.

fat-3(wa22) mutant [3] = assay: Development monitoring after dietary PUFA supplementation; format: in vivo, C. elegans; settings: 200 μM in E. coli OP50 diet, 36 h after hatching, 23 °C
Protocol: as §3, with “stage. For monitoring the development N2 (WT) and fat-3(wa22) gravid animals were allowed to lay eggs for 2–3 h. These eggs were transferred onto NGM plates supplemented with PUFAs as described above. Their growth was monitored and then imaged using an AmScope MU1000 camera, USA.” for “stage.”

FAAH-1 = target: T2, FAAH-1 (Caenorhabditis elegans, UniProt Q17449); assay: Competitive [3H]AEA hydrolysis assay in whole worm homogenate; format: biochemical, C. elegans
T2 construct: from tissue; host or cells: whole C. elegans worm homogenate
T2 sequence (Q17449 15-572): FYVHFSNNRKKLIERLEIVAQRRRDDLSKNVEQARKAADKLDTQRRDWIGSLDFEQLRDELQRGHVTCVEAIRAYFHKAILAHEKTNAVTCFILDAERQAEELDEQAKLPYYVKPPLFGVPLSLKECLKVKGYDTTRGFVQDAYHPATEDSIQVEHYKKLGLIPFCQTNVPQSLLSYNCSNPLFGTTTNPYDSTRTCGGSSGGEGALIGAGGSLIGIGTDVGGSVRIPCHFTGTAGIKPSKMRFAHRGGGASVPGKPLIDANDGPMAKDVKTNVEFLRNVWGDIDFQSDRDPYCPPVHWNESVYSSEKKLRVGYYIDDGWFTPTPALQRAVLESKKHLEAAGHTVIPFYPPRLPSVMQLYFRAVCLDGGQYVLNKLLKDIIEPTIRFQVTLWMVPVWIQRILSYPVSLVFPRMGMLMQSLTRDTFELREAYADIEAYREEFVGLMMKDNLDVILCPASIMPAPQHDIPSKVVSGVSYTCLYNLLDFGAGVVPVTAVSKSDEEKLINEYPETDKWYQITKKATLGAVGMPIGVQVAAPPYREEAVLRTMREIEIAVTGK
Protocol: as §1, §2

FAAH = target: T3, FAAH (Sus scrofa, UniProt Q9TUI8); assay: Competitive [3H]AEA hydrolysis assay in pig brain homogenate; format: biochemical
T3 construct: or pig brain homogenate (200 µg per sample); from tissue; host or cells: pig brain homogenate
T3 sequence (Q9TUI8 1-579): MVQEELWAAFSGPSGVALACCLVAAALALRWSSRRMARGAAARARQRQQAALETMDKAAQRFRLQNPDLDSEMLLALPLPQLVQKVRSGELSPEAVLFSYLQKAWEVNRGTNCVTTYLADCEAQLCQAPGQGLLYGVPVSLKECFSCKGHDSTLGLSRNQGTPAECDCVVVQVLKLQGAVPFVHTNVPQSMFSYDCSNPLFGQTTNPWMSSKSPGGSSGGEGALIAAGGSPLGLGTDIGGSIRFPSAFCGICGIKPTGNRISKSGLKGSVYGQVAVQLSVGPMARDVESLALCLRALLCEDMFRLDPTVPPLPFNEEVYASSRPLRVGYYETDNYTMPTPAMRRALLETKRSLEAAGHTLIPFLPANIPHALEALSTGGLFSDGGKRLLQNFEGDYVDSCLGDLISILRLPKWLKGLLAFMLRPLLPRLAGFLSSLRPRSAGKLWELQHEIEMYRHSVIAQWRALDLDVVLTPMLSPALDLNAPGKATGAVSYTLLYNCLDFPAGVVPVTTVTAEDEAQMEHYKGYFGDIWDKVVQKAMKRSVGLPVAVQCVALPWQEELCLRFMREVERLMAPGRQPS
Protocol: AEA and [^3H] 2-OG, respectively. The reaction was performed using worm homogenate (200 or 100 µg per sample) or pig brain homogenate (200 µg per sample) in 194 μL of assay buffer (10 mM Tris-HCl, 1 mM EDTA, 0.1 % BSA, pH 8.0). […] The reaction was stopped by adding 400 μL of ice-cold mixture CHCl3-CH3OH (1:1 v/v), and, subsequently, tubes were vortexed and centrifuged for 10 min at 4 °C and 10,000 rpm. Finally, the upper aqueous phase was transferred to scintillation vials and mixed with 3 mL of Ultima Gold scintillation liquid. Signal was detected with TRICARB 2100TR scintillation counter and results were analyzed with GraphPad Prism 5® and expressed as [^3H] AEA or [^3H] 2-OG hydrolysis (% of vehicle).

[4] = displacement of 3 nM [3H]CP55,940, N2 (WT) membranes, 5 µM JZL-195 preincubation; apparent Ki by Cheng-Prusoff; 95% CI; read-out: Ki, NPR-32 binding
[5] = read-out: Ki, NPR-32 binding; displacement of 3 nM [3H]CP55,940, N2 (WT) membranes, 5 µM JZL-195 preincubation; apparent Ki by Cheng-Prusoff; 95% CI

1/2-juniperoylglycerol [1/2-JG]
Ki (NPR-32; [4]): 1.1 µM
hydrolysis by MAGL (competition with tritiated 2-OG) (MAGL): readily hydrolyzed
competition with 2-OG hydrolysis [1]: competed

CCCCC/C=C\C/C=C\C/C=C\C/C=C\CCCC(=O)O [AA, Arachidonic acid]
hatching and brood size defects (fat-3(wa22) mutant [2]): recovered
effect on lifespan (N2 (WT) animals): did not affect the lifespan
recovery of growth and development defects (fat-3(wa22) mutant [3]): significant recovery of growth and development defects

CCCCC/C=C\C/C=C\C/C=C\C/C=C\CCCC(=O)NCCO [AEA, N-arachidonoyl ethanolamine]
Ki (NPR-32; [5]): 1.9 µM

CC/C=C\C/C=C\C/C=C\CCCC/C=C\CCCC(=O)NCCO [JEA, N-juniperoyl ethanolamine]
Ki (NPR-32; [4]): 0.74 µM
competition with AEA hydrolysis (FAAH-1; whole worm homogenates): competed
hydrolysis by FAAH (competition with tritiated AEA) (FAAH): readily hydrolyzed

CC/C=C\C/C=C\C/C=C\CCCC/C=C\CCCC(=O)O [JuA, Juniperonic acid]
reversal of growth delay and brood size reduction in RNAi knockdowns (fat-3(wa22) mutant [2]; fat-3(wa22) with fat-4 and elo-2 RNAi knockdown, JuA supplementation): could reverse the additional detrimental effects
hatching and brood size defects (fat-3(wa22) mutant [2]): recovered
effect on lifespan (N2 (WT) animals): did not affect the lifespan
recovery of growth and development defects (fat-3(wa22) mutant [3]): significant recovery of growth and development defects

CC/C=C\C/C=C\C/C=C\C/C=C\CCCCCCC(=O)O [ω-3 AA, Omega-3 arachidonic acid]
hatching and brood size defects (fat-3(wa22) mutant [2]): recovered
effect on lifespan (N2 (WT) animals): did not affect the lifespan
recovery of growth and development defects (fat-3(wa22) mutant [3]): significant recovery of growth and development defects

CC/C=C\C/C=C\C/C=C\C/C=C\CCCCCCC(=O)NCCO [ω-3 AEA, Omega-3 N-arachidonoyl ethanolamine]
Ki (NPR-32; [5]): 1 µM
IC50 (FAAH-1; whole worm homogenate, 20 min 37 °C, AEA final 2 µM, read-out: IC50, competition with [3H] AEA hydrolysis): 36 µM
IC50 (FAAH; 20 min 37 °C, AEA final 2 µM, read-out: IC50, competition with [3H]-AEA hydrolysis): > 100 µM

Omega-3 1/2-arachidonoyl glycerol [ω-3 1/2-AG]
competition with 2-OG hydrolysis [1]: competed
